Test results from US20250222100A1, “COMPLETE TOLEROGENIC ADJUVANT AND METHODS OF USING THE SAME” (THE BOARD OF TRUSTEES OF THE UNIVERSITY OF ILLINOIS, priority 2024, published 2025).
Where a name gives a salt, the structure may show the parent alone.

How the values were obtained:
[1] = system: KJ1-26+ Treg and Teff cells in DLN, NLNs and spleen; experiment: Inhibition of T cell egress with FTY720 in the model; format: in vivo, BALB/c Foxp3-eGFP mice; conditions: FTY720 with OVA-in-8203
Method: Inhibition of T Cell Egress with FTY720. FTY720 was dissolved in DMSO at 20 μg/μl. On day 5 in the model, 1 μl of FTY720 was mixed with one dose of OVA-in-8203, and the mixture was injected into the primed footpad. As a control, 1 μl of DMSO was used in place of FTY720, and the mixture was injected into a control group. On days 6 and 7, the mice were given additional injections (i.p.) of FTY720 (or DMSO) at 1 μl (diluted in 100 μl PBS)/mouse/day. On day 8, KJ1-26^+ Treg and Teff cells in the DLN, NLNs, and the spleen were counted, as described earlier.

[2] = system: antigen-reactive Treg and Teff cells; experiment: Ki67 assay of antigen-reactive T cells in AFK mice; format: in vivo, AFK mice (C57BL/6 Apoe-/- Foxp3-eGFP Ki67-tagRFP); conditions: FTY720 after 8206
Method: Preparation and Injection of Composition 8206. Composition 8206 was prepared in the same steps as described for 8203 (Example 1), except that R848 was used in place of MPLA. It was injected subcutaneously at the back flank in 50 μl of PBS. PBS containing DMSO (as “PBS”), which was the initial solvent for rapamycin and R848, was used as a control.
Ki67-TagRFP-Based In Vitro Proliferation Assay for T Cells (“Ki67 Assay”). Total cells were isolated from lymphoid organs, washed twice in RPMI 1640/10% FCS, and counted by flow cytometry as described in Example 1. A portion of the isolated cells was cultured at 1×10^6 cells/well in a 96-well U-bottom plate. The wells were filled with 200 μl of RPMI 1640/10% FCS supplemented with 2-mercaptoethanol (50 μM), murine IL-2 (20 ng/ml), MPLA (100 ng/ml), sodium pyruvate (1 mM), and a peptide antigen (3 μg/ml) or DMSO (as a solvent control for the antigen). After 5 days, the cells were analyzed by flow cytometry with a BD FACS Melody. Proliferating Treg and Teff cells were identified as CD4+Foxp-eGFP+Ki67-TagRFP+CD62L1o and CD4+Foxp-eGFP Ki 67-TagRFP+CD62L10 populations, respectively; the cells were counted by the method of Schlenke ((1998) Cytometry 33:310-317). […] The difference was expressed as count/organ by multiplying the total number of cells in an organ divided by the portion used in the assay. […]

[3] = system: monocyte-derived macrophages in DLN, NLN and spleen; experiment: Systemic MMφ influx into draining and non-draining lymph nodes (R848, 8206); format: in vivo, C56BL/6 mice
Method: FIGS. 9A-9B show the effect of R848 on draining lymph node (DLN) versus non-draining lymph node (NLN). (FIG. 9A) C56BL/6 mice (10-week-old) were injected at the right-footpad with 20 μl of PBS containing DMSO (control), 3 μg of MPLA, or an equal molar amount (0.6 μg) of R848. At 24 hours, monocyte-derived macrophages (MM) in both the DLN and the NLN were counted by flow cytometry. Data are mean±SD of four experiments (on a log scale). * p≤0.001 (one-way ANOVA). (FIG. 9B) Dose-response analysis of R848. C56BL/6 mice (10-week-old) were injected subcutaneously at the back flank with 50 μl of PBS containing 8 μg of dexamethasone, 20 μg of rapamycin, and an indicated dose of R848. At 24 h, MMφ in popliteal lymph nodes were counted. Shown is a nonlinearly fitted substrate inhibition curve for mean±SD of 4-8 LNs. * p≤0.01 (one-way ANOVA).
C56BL/6 mice (10-week-old) were injected subcutaneously at the back flank with 8206 or PBS. At 24 hours, MMO in popliteal (PLN), axillary (ALN), mesenteric (MLN), and caudal mediastinal (CLN) lymph nodes and the spleen (SP) were counted. Data are mean±SD of four experiments (on a log scale). *p≤0.01 (t-test).
Preparation and Injection of Composition 8206. Composition 8206 was prepared in the same steps as described for 8203 (Example 1), except that R848 was used in place of MPLA. It was injected subcutaneously at the back flank in 50 μl of PBS. […]

[4] = system: KJ1-26+ Treg and Teff cells; experiment: Mouse model testing tolerogenic adjuvants (the model): KJ1-26+ T cell counts and proliferation; format: in vivo, BALB/c Foxp3-eGFP mice; conditions: OVA with indicated components once every 3 days
Method: Mouse Model Testing Tolerogenic Adjuvants (“the Model”). The model was generated as follows: On day 0, whole blood was collected with heparin as the anticoagulant from a DO11.10 Foxp3-eGFP mouse. The blood was diluted 1:50 in PBS and transfused intravenously (i.v.) into sex-matched syngeneic BALB/c Foxp3-eGFP mice at ˜100 μl (containing ˜4,000 CD4+KJ1-26^+ cells) per mouse. On day 1, the recipients were injected at a footpad with 100 μg of OVA in 20 μl of PBS (see “Footpad Injection”) and let rest. On day 5, they were used as the model.
Determination of CD4^+ T cell Counts in the Model. A cell suspension was prepared from the DLN, NLNs, or the spleen as described herein. For counting CD4^+ T cells in the DLN, a portion of the DLN cell suspension was stained with PE/Cy7 anti-CD3 and APC anti-CD4 and analyzed by flow cytometry. The total CD4^+ T cell count (CD3+CD4+) in the suspension was determined by the method of Schlenke et al. ((1998) Cytometry 33:310-317). […] Cells were analyzed by flow cytometry. The total counts in the suspension for KJ1-26^+ Treg, KJ1-26^+ Teff, host Treg, and host Teff cells were calculated as portions of the total CD4^+ T cell count. The count in percent for Treg cells (“% Treg”) was calculated as % of the total Treg and Teff counts combined. […]

[5] = system: MMφs, DCs, Treg cells and Teff cells in draining lymph node; experiment: Adjuvant-induced potentiation in lymphoid organs after footpad injection; format: in vivo, mouse; conditions: one day
Method: Footpad Injection. “A footpad” means the footpad of the right hind leg. Adjuvant components, antigens, or their combinations were injected subcutaneously (s.c.) between the 3rd and 4th toes in a volume of ˜20 μl in phosphate-buffered saline (PBS) with a BD insulin syringe.
Dose-Response Analysis. For dose-response analysis of MPLA, the reagent was serially diluted in DMSO; 5 μl of the diluted reagent were mixed with 100 μl of PBS and the resulting mixture was injected at 20 μl/footpad. For dose 0, 5 μl of DMSO were mixed with 100 μl of PBS and the resulting mixture was injected. Dose-response analysis of rapamycin was performed similarly, except that PBS containing 3 μg of MPLA was used in place of PBS.
Analysis of Adjuvant-Induced Potentiation in Lymphoid Organs. […] Cells were analyzed by flow cytometry. […] The total counts of MMos (CD11^loCD40^lo) (Zheng et al. (2013) Eur. J. Immunol. 43:219-227) and DCs (all the CD11+CD40^+ cells after excluding the CD11^loCD40^lo cells) (Zheng et al. (2013) Eur. J. Immunol. 43:219-227) in the cell suspension were determined by the method of Schlenke et al. ((1998) Cytometry 33:310-317). The MMφ count in percent was calculated as % of the total MMO and DC counts combined. […]

## CCCCCCCCc1ccc(CCC(N)(CO)CO)cc1 [FTY720, fingolimod HCl]
[1]
  gain of KJ1-26+ Treg counts in NLNs and spleen: could be blocked
[2]
  accumulation of P210m-reactive Treg cells in spleen with egress blocker: could be inhibited

## CCOCc1nc2c(N)nc3ccccc3c2n1CC(C)(C)O [R848, resiquimod]
[3]; combined with 8 μg dexamethasone and 20 μg rapamycin, s.c. back flank
  optimal dose for systemic MMφ effect: about 6 μg

## monophosphoryl lipid A [MPLA]
[4]
  role of component in prolonging Treg cell expansion / shortening Teff cell expansion in DLN: not required here for either effect
[5]; injected alone into a footpad, BALB/c mouse
  influx of MMφs, Teff cells, DCs and Treg cells to the DLN: induced an influx of MMφs and Teff cells preferentially over that of DCs and Treg cells
[5]; single footpad injection, BALB/c
  abundance and absolute number of MMφs in the DLN: attract MMS
[3]; footpad, 24 hours
  attraction of MMφs to non-draining lymph nodes: could not
